# Experimental data reported in patent publication US20170095512A1, “METHODS OF INDUCING MYELINATION AND MATURATION OF OLIGODENDROCYTES” (KADIMASTEM LTD., priority 2014, published 2017).
# “Also recorded” adds a separate entry of the source.
# How the values were obtained:
# [1] = test system: human oligodendrocytes precursor cells (hOPC); test: Microarray gene expression analysis of LDN treated hOPC; format: cell-based; conditions: 125 nM, 35 days
# Procedure: LDN (125 nM) was supplemented to human oligodendrocytes precursor cells (hOPC) for 35 days. Microarray analysis was performed on duplicate of LDN treated and Non-treated (NT) hOPC.
# [2] = test system: glial progenitor cells derived from human ES cells (Olig2 positive cells); test: hOPC differentiation assay, Olig2 positive cells (immunostaining, high content screening); format: cell-based
# Procedure: In order to initiate differentiation 20,000 GPCs were seeded in each well of Matrigel coated plates of 96 wells, or on PolyD-Lysine/laminin (PDL/lam)-coated 96 well plates. Cells were grown in GM media for two to three days. Then GM was replaced by differentiation medium without growth factors, (DMEM/F12, 1% B27, 0.5% N2, Vitamin C (Sigma, 50 ug/ml). Differentiation medium was supplemented with the following tested compounds: […] All media were replaced every other day. The oligodendrocyte lineage cells were characterized by the expression of a transcription factor olig2. The rabbit polyclonal AB anti olig2 (Millipore cat AB9610) was added to PFA fixed cells. […] The fixed cells were washed three times in blocking solution, olig2 diluted 1/500, in blocking solution, was added for 1 hour. The fixed cells were washed with PBS 3 times and goat anti rabbit Alexa Fluor 568 1/500 in PBS was added for 45 minutes. The fixed cells were washed three times. ArrayScan VTI HCS reader system (Cellomis, Thermo-scientific) was used for scanning at least 20 fields for each tested well under 10× objective in both assays (differentiation and myelination). Cellomics Neural profiling bio-application was used for processing and analyzing the images. For differentiation assay, the following parameters were tested: number and percentage of O4+ cells, number of processes, processes length and number of branching points. For myelination assay, the same morphological parameters were tested and in addition: areas of myelinated axons in pixels (MBP&NF overlap area) and Number of myelinated regions (MBP&NF overlap count) were also analyzed. Modifications in the Neuro-profiling bio-application were conducted for this specific purpose. T-test analysis was used to compare between treatments. The 4-parameter Hill-Slope curve fittings were generated by GraphPad Prism software using least squares fitting method and EC50 values were calculated. […] The cells at passage five were cultured for three days with GM on 96 well plates and after fixation, cells were reacted with anti-olig2 Ab, and olig2 positive cells and nuclei were scanned in the Thermo Scientific™ ArrayScan™ XTI High Content Analysis (HCA) Reader and counted with the neural profiling program. On the other hand the cells surface antigens O4 and PDGFRa were detected on dissociated cells after fixation and reaction with O4 Ab conjugated to APC, anti PDGFRa PE, as well as A2B5 PE all obtained from BD. Flow cytometry was conducted in BD FACS Canto II. […] Time points used for analysis are 21, 28, 35 and 42 days of differentiation, for each time point 20 fields were analyzed. […] In this experiment, cells at passage 4 were pretreated in differentiation medium with Noggin for 14 days, and split before seeding on 96 well plates.
smiles,measurement,setting,value
c1ccc2c(-c3cnn4cc(-c5ccc(N6CCNCC6)cc5)cnc34)ccnc2c1 [LDN-193189],"LDN expression value: ADAMTS5, cluster 16924620",[1],4.59
same,"LDN expression value: AN04, cluster 16755712",[1],3.1
same,"LDN expression value: ARHGAP28, cluster 16850724",[1],3.09
same,"LDN expression value: ASPN, cluster 17095887",[1],9.23
same,"LDN expression value: ATP8B1, cluster 16855510",[1],3.98
same,"LDN expression value: BCAS1, cluster 16920475",[1],6.52
same,"LDN expression value: BMP8B, cluster 16685729",[1],4.53
same,"LDN expression value: C1QTNF9B-AS1, cluster 16773183",[1],3.69
same,"LDN expression value: CACNG5, cluster 16837160",[1],5.71
same,"LDN expression value: CATSPER2P1, cluster 16808340",[1],5.12
same,"LDN expression value: CGB2, cluster 16863963",[1],4.05
same,"LDN expression value: CKMT1A, cluster 16800268",[1],4.08
same,"LDN expression value: CLDN25, cluster 16731401",[1],4.26
same,"LDN expression value: CLVS2, cluster 17012223",[1],4.53
same,"LDN expression value: COL12A1, cluster 17020846",[1],8.23
same,"LDN expression value: CYTL1, cluster 16973934",[1],5.81
same,"LDN expression value: DLX2, cluster 16905108",[1],6.25
same,"LDN expression value: DLX6-AS1, cluster 17060039",[1],5.13
same,"LDN expression value: EFTUD1P1, cluster 16804141",[1],3.87
same,"LDN expression value: FLJ16124, cluster 16880774",[1],3.13
same,"LDN expression value: GABRQ, cluster 17107855",[1],6.76
same,"LDN expression value: GAD2, cluster 16703382",[1],3.71
same,"LDN expression value: GFRA1, cluster 16718670",[1],7.52
same,"LDN expression value: GJB2, cluster 16777185",[1],4.88
same,"LDN expression value: GPR126, cluster 17013126",[1],5.42
same,"LDN expression value: GRIK1, cluster 16924761",[1],7.51
same,"LDN expression value: GSX2, cluster 16966801",[1],4.62
same,"LDN expression value: HCG24, cluster 17028423",[1],2.38
same,"LDN expression value: ID1, cluster 16912362",[1],4.47
same,"LDN expression value: ID3, cluster 16683377",[1],5.5
same,"LDN expression value: IGLV3-9, cluster 16927827",[1],5.34
same,"LDN expression value: IL17RB, cluster 16941871",[1],4.55
same,"LDN expression value: INSM1, cluster 16911917",[1],6.13
same,"LDN expression value: KIAA1199, cluster 16803754",[1],4.07
same,"LDN expression value: LOC284632, cluster 16660753",[1],3.33
same,"LDN expression value: LOC100286922, cluster 16909695",[1],3.3
same,"LDN expression value: LPAR3, cluster 16688992",[1],5.8
same,"LDN expression value: LRRC7, cluster 16665976",[1],3.48
same,"LDN expression value: LRRTM1, cluster 16899533",[1],3.97
same,"LDN expression value: MIR1226, cluster 16940440",[1],4.98
same,"LDN expression value: MIR1321, cluster 17105179",[1],3.47
same,"LDN expression value: MIR3160-1, cluster 16724356",[1],4.18
same,"LDN expression value: MSLNL, cluster 16822561",[1],5.67
same,"LDN expression value: NUDT9P1, cluster 16716499",[1],3.56
same,"LDN expression value: OR2V1, cluster 17004061",[1],3.13
same,"LDN expression value: OTTHUMG00000156244, cluster 17056553",[1],4.16
same,"LDN expression value: OTTHUMG00000176466, cluster 16826102",[1],5.02
same,"LDN expression value: PAPPA2, cluster 16674151",[1],4.24
same,"LDN expression value: PDE5A, cluster 16979339",[1],4.13
same,"LDN expression value: PPP1R17, cluster 17044956",[1],5.13
same,"LDN expression value: RNA5SP482, cluster 16912470",[1],2.92
same,"LDN expression value: SCARNA1, cluster 16661495",[1],2.28
same,"LDN expression value: SCGN, cluster 17005473",[1],6.7
same,"LDN expression value: SERPINA3, cluster 16787902",[1],5.07
same,"LDN expression value: SLC1A2, cluster 16737325",[1],6.08
same,"LDN expression value: SLC1A4, cluster 16880712",[1],8.96
same,"LDN expression value: SLC1A5, cluster 16873632",[1],6.29
same,"LDN expression value: SNORA70B, cluster 16898108",[1],2.38
same,"LDN expression value: SNORD1B, cluster 16838101",[1],3.01
same,"LDN expression value: SNORD37, cluster 16867229",[1],3.63
same,"LDN expression value: SNORD88B, cluster 16874641",[1],5.05
same,"LDN expression value: SOX10, cluster 16934881",[1],6.63
same,"LDN expression value: SP8, cluster 17055689",[1],4.65
same,"LDN expression value: ST18, cluster 17077073",[1],2.85
same,"LDN expression value: TEX35, cluster 16674240",[1],3.05
same,"LDN expression value: TNFAIP6, cluster 16886491",[1],5.47
same,"LDN expression value: TNR, cluster 16696624",[1],8.09
same,"LDN expression value: TRAJ46, cluster 16782032",[1],3.99
same,"LDN expression value: TRIM65, cluster 16848961",[1],5.41
same,"LDN expression value: TTK, cluster 17010552",[1],5.68
same,"LDN expression value: UGT8, cluster 16970001",[1],8.99
same,"LDN expression value: WIF1, cluster 16767081",[1],5.73
same,"LDN expression value: ZIC2, cluster 16776103",[1],4.76
same,LDN expression value: cluster 16662690,[1],3.02
same,LDN expression value: cluster 16689704,[1],2.34
same,LDN expression value: cluster 16697040,[1],3.18
same,LDN expression value: cluster 16697217,[1],3.02
same,LDN expression value: cluster 16703561,[1],5.3
same,LDN expression value: cluster 16707466,[1],3.92
same,LDN expression value: cluster 16740950,[1],5.53
same,LDN expression value: cluster 16742286,[1],4.35
same,LDN expression value: cluster 16758848,[1],4.29
same,LDN expression value: cluster 16766940,[1],6.76
same,LDN expression value: cluster 16781352,[1],4.74
same,LDN expression value: cluster 16797929,[1],5.86
same,LDN expression value: cluster 16834632,[1],3.21
same,LDN expression value: cluster 16846798,[1],5.15
same,LDN expression value: cluster 16906256,[1],3.32
same,LDN expression value: cluster 16926511,[1],5.66
same,LDN expression value: cluster 16928859,[1],2.2
same,LDN expression value: cluster 16985206,[1],3.41
same,LDN expression value: cluster 16997369,[1],4.3
same,LDN expression value: cluster 17012233,[1],3.53
same,LDN expression value: cluster 17042403,[1],7.47
same,LDN expression value: cluster 17056789,[1],6.64
same,LDN expression value: cluster 17063571,[1],2.81
same,LDN expression value: cluster 17112263,[1],2.9
same,LDN expression value: cluster 17117590,[1],5.68
same,LDN expression value: cluster 17118266,[1],2.43
same,LDN expression value: cluster 17118303,[1],3.61
same,LDN expression value: cluster 17124590,[1],2.62
same,Olig2+ cells number / differentiation (summary statement),[2],increased the number of O4+ and Olig2+ cells; also recorded: stimulates the formation of olig2 positive cells
same,EC50,"[2]; 21 days, differentiation medium without noggin, with or without PDGF (20 ng/ml), read-out: EC50 (percentage of olig2 positive cells)",~30 nM
same,number / percentage of Olig2+ cells (hOPC commitment),"[2]; day 21, Noggin 50 ng/ml + PDGF 20 ng/ml, Dorsomorphin 2 μM, LDN-193189 125 nM",increased the number of Olig2+
same,conversion of neural stem cells to Olig2 positive cells,"[2]; days 21, 28, 35, 42, noggin 100 ng/ml, LDN-193189 62.5 nM and 125 nM",stimulate the conversion of neural stem cells to Olig2 positive cells
